From patent US12448388B2, “PRMT5 inhibitors and uses thereof” (Gilead Sciences, Inc., priority 2023, dated 2025)
In brackets after ≈: the same amount, converted by molar mass. Like-named read-outs stand apart in the source and are kept apart here.

Tests used:
[1] = tested on: HCT116 MTAP-deleted cell lines; test: Cell viability assay (CellTiter-Glo, 7 days), HCT116 MTAP-deleted; type: cell-based; conditions: for Selectivity: HCT116 WT CC50 versus HCT116 MTAP^del CC50; for plasma-adjusted CC50 (paCC50): paCC50 = CC50-HCT116-MTAP^del * (% free CCM/% free human plasma); for CC50: Homo sapiens, HCT116 MTAP-deleted
Method in brief: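 HCT116 MTAP-deleted and wild-type cells exposed to serially diluted compound for 7 days at 37 °C, 5% CO2. Viability read by CellTiter-Glo luminescence; CC50 derived per line, with selectivity comparing WT to MTAP-deleted, limited solubility can inflate values marked *.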

[2] = MDR1/BCRP assay: permeability in cPgp-KO-MDCK-WT cells; type: in vitro ADME; conditions: dog, pH 7.4
Method in brief: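 Compounds at 1 μM were dosed apically or basolaterally on 5-day confluent cPgp-KO-MDCK monolayers, HBSS/HEPES/glucose pH 7.4 donor and receiver with 1% BSA, duplicate wells. Receiver samples at 2 h were analysed by LC-MS/MS to give A→B and B→A Papp plus % recovery; TEER confirmed integrity.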

[3] = PBS solubility (kinetic solubility from DMSO stocks); type: physicochemical; conditions: 22 °C, aqueous buffer, kinetic from dmso stock; 1x PBS pH 7.4, 1.0% DMSO, 24-hour incubation at ambient temperature
Method in brief: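 Kinetic solubility in 1× PBS pH 7.4 with 1.0% final DMSO, maximum theoretical concentration 100 μM from 10 mM stock. After 24 h at ambient temperature (20.8-24.0 °C) the samples were vacuum-filtered and filtrates quantified by nitrogen detection against a calibration curve. Values were background-corrected and reported in μM and μg/mL.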

[4] = HCT-116, 168 h, 7 days of treatment, CTG, read-out: CC50-HCT116-MTAP^del
[5] = HCT-116, cell viability assay, class symbols, read-out: CC50
[6] = HCT-116, * Calculated using Low throughput hEQDS
[7] = HCT-116, cell viability, class symbols, read-out: CC50

Papp A→B at 2 h, 1 µM [2] [×10⁻⁶ cm/s]	solubility at 24 h [3] [µM]	SMILES	Selectivity [1]	plasma-adjusted CC50 (paCC50) ([1]; HCT-116) [nM]	CC50 [1, 4] [nM]	CC50 [1, 5] [nM]	plasma-adjusted CC50 (paCC50) [1, 6] [nM]	CC50 [1, 7] [nM]
11.2	16.1 (≈ 7.57 µg/mL)	Nc1nc2cnc(C(=O)N3CC[C@H]4C[C@@H]3c3ccc(OC(F)(F)F)cc3O4)cc2n2cncc12 [Ff-685, (4-aminoimidazo[1,5-a]pyrido[3,4-e]pyrazin-8-yl)((2S,6R)-9-(trifluoromethoxy)-3,4-dihydro-2H-2,6-methanobenzo[b][1,5]oxazocin-5(6H)-yl)methanone]	71	357	16	< 100		
9.5	13.7 (≈ 6.69 µg/mL)	Nc1nc2cnc(C(=O)N3CCC[C@@H]4Oc5cc(OC(F)(F)F)cc(F)c5[C@@H]43)cc2n2cncc12 (single isomer, unassigned) [Fg-55]	89		9	< 100	190	
12.2	2.3 (≈ 1.09 µg/mL)	Nc1nc2cnc(C(=O)N3CCC[C@@H]4Oc5c(ccc(C(F)(F)F)c5F)[C@@H]43)cc2n2cncc12 [Ff-109, (4-aminoimidazo[1,5-a]pyrido[3,4-e]pyrazin-8-yl)((4aS,9bS)-6-fluoro-7-(trifluoromethyl)-3,4,4a,9b-tetrahydrobenzofuro[3,2-b]pyridin-1(2H)-yl)methanone]	92	276	15			< 100
17.8	< 1	Cc1ncn2c1c(N)nc1cnc(C(=O)N3CCC[C@@H]4Oc5cc(C(F)(F)F)ccc5[C@@H]43)cc12 [Ff-499, (4-amino-3-methylimidazo[1,5-a]pyrido[3,4-e]pyrazin-8-yl)((4aS,9bS)-7-(trifluoromethyl)-3,4,4a,9b-tetrahydrobenzofuro[3,2-b]pyridin-1(2H)-yl)methanone]	69	168	13	< 100		
8.8	17.9 (≈ 8.44 µg/mL)	Nc1nc2cc(F)c(C(=O)N3CCO[C@@H]4Cc5cc(C(F)(F)F)ccc5[C@@H]43)cc2n2cncc12 (single isomer, unassigned) [Ff-82]	77	408	27			< 100
	< 1	Nc1nc2cc(F)c(C(=O)N3CCC[C@@H]4Oc5cc(C(F)(F)F)ccc5[C@@H]43)cc2n2cncc12 [Ff-104, (4-amino-7-fluoroimidazo[1,5-a]quinoxalin-8-yl)((4aS,9bS)-7-(trifluoromethyl)-3,4,4a,9b-tetrahydrobenzofuro[3,2-b]pyridin-1(2H)-yl)methanone]	94		5		139	< 100
10.3	1.6 (≈ 0.802 µg/mL)	C[C@@H]1CN(C(=O)c2cc3c(cc2F)nc(N)c2cncn23)[C@H]2c3ccc(OC(F)(F)F)cc3C[C@H]2O1 (single isomer, unassigned) [Ff-183]	57	257	15			< 100
7		[2H]C1([2H])CC[C@@H]2Oc3cc(C(F)(F)F)ccc3[C@@H]2N1C(=O)c1cc2c(cn1)nc(N)c1cncn12 [Fg-60, (4-aminoimidazo[1,5-a]pyrido[3,4-e]pyrazin-8-yl)((4aS,9bS)-7-(trifluoromethyl)-3,4,4a,9b-tetrahydrobenzofuro[3,2-b]pyridin-1(2H)-yl-2,2-d2)methanone]	98		7	< 100		
16	< 1	C[C@@H]1CN(C(=O)c2cc3c(cc2F)nc(N)c2cncn23)[C@H]2c3cc(F)c(OC(F)(F)F)cc3C[C@H]2O1 (single isomer, unassigned) [Ff-197]	47	217	15			< 100
10.3	1.7 (≈ 0.8 µg/mL)	Nc1nc2cnc(C(=O)N3CCC[C@@H]4Oc5cc(OC(F)(F)F)ccc5[C@@H]43)cc2n2cncc12 [Ff-341, (4-aminoimidazo[1,5-a]pyrido[3,4-e]pyrazin-8-yl)((4aS,9bS)-7-(trifluoromethoxy)-3,4,4a,9b-tetrahydrobenzofuro[3,2-b]pyridin-1(2H)-yl)methanone]	79	150	9			< 100
12.1	1.7 (≈ 0.773 µg/mL)	Nc1nc2cnc(C(=O)N3CCC[C@@H]4Oc5cc(C(F)(F)F)ccc5[C@@H]43)cc2n2cncc12 [Ff-110, (4-aminoimidazo[1,5-a]pyrido[3,4-e]pyrazin-8-yl)((4aS,9bS)-7-(trifluoromethyl)-3,4,4a,9b-tetrahydrobenzofuro[3,2-b]pyridin-1(2H)-yl)methanone]	86	100	6			< 100
16.6	19.9 (≈ 9.4 µg/mL)	Nc1nc2cnc(C(=O)N3CCC[C@@H]4Oc5cc(C(F)(F)F)cc(F)c5[C@@H]43)cc2n2cncc12 (single isomer, unassigned) [Fg-53]	84		6	< 100	139	
10.9	5.1 (≈ 2.45 µg/mL)	Nc1nc2cnc(C(=O)N3CC4(CC4)C[C@@H]4Oc5cc(C(F)(F)F)ccc5[C@@H]43)cc2n2cncc12 [Ff-648, (4-aminoimidazo[1,5-a]pyrido[3,4-e]pyrazin-8-yl)((4aS,9bS)-7-(trifluoromethyl)-4a,9b-dihydro-2H-spiro[benzofuro[3,2-b]pyridine-3,1′-cyclopropan]-1(4H)-yl)methanone]	72	262	9	< 100		
10.5	18.5 (≈ 8.98 µg/mL)	C[C@H]1CN(C(=O)c2cc3c(cc2F)nc(N)c2cncn23)[C@H]2c3ccc(C(F)(F)F)cc3C[C@H]2O1 (single isomer, unassigned) [Ff-81]	71		19		591	< 100
19.7	50.2 (≈ 23.7 µg/mL)	Nc1nc2cnc(C(=O)N3CC[C@H]4C[C@@H]3c3c(F)cc(C(F)(F)F)cc3O4)cc2n2cncc12 (single isomer, unassigned) [Ff-694]	72	120	10			
14.3	9.9 (≈ 4.81 µg/mL)	C[C@H]1CN(C(=O)c2cc3c(cc2F)nc(N)c2cncn23)[C@H]2c3cc(F)c(C(F)F)cc3C[C@H]2O1 (single isomer, unassigned) [Ff-173]	64	1160	35			< 100
13.7	34.9 (≈ 15.9 µg/mL)	Nc1nc2cnc(C(=O)N3CC[C@H]4C[C@@H]3c3ccc(C(F)(F)F)cc3O4)cc2n2cncc12 [Ff-367, (4-aminoimidazo[1,5-a]pyrido[3,4-e]pyrazin-8-yl)((2S,6R)-9-(trifluoromethyl)-3,4-dihydro-2H-2,6-methanobenzo[b][1,5]oxazocin-5(6H)-yl)methanone]	77	199	12			< 100
10.7	28.4 (≈ 13.4 µg/mL)	Nc1nc2cnc(C(=O)N3CC[C@H]4C[C@@H]3c3ccc(C(F)(F)F)c(F)c3O4)cc2n2cncc12 [Ff-684, (4-aminoimidazo[1,5-a]pyrido[3,4-e]pyrazin-8-yl)((2S,6R)-10-fluoro-9-(trifluoromethyl)-3,4-dihydro-2H-2,6-methanobenzo[b][1,5]oxazocin-5(6H)-yl)methanone]	93	465	14	< 100		
16.3	< 1	Cc1ncc2c(N)nc3cnc(C(=O)N4CCC[C@@H]5Oc6cc(OC(F)(F)F)ccc6[C@@H]54)cc3n12 [Ff-340, (4-amino-1-methylimidazo[1,5-a]pyrido[3,4-e]pyrazin-8-yl)((4aS,9bS)-7-(trifluoromethoxy)-3,4,4a,9b-tetrahydrobenzofuro[3,2-b]pyridin-1(2H)-yl)methanone]	107	298	23			< 100
15.3	1.1 (≈ 0.499 µg/mL)	Nc1nc2ccc(C(=O)N3CCC[C@@H]4Oc5cc(C(F)(F)F)ccc5[C@@H]43)cc2n2cncc12 [Ff-111, (4-aminoimidazo[1,5-a]quinoxalin-8-yl)((4aS,9bS)-7-(trifluoromethyl)-3,4,4a,9b-tetrahydrobenzofuro[3,2-b]pyridin-1(2H)-yl)methanone]	110	139	10			< 100
